Measured values published in EP0813871A1, “Berberine derivates for inhibiting production of HSP47” (Kureha Chemical Industry Co., Ltd., priority 1996, dated 1997).
Where a name gives a salt, the structure may show the parent alone.

How the values were obtained:
HSP47 = assay: Inhibition of HSP47 production in heat-shocked human cancer cell lines (Western blotting); format: cell-based; details: Western blot, 20 µM
Protocol: The following various human cancer cell lines were cultured under 5% CO2, at 37 °C, except for the heat shock treatment period. The lung cancer cell line H69 (ATCC HTB 119), the stomach cancer cell line KATO III (ATCC HTB 103), the colon cancer cell line COLO 205 (ATCC CCL 222), and the prostate cancer cell line DU145 (ATCC HTB 81) were cultured in an RPMI1640 medium containing 10% inactivated FBS.
The breast cancer cell line MCF7 (ATCC HTB 22) was cultured in an RPMI1640 medium containing 10^-8 M β-estradiol and 10% inactivated FBS.
The kidney cancer cell line ACHN (ATCC CRL 1611) was cultured in an MEM medium containing 10% inactivated FBS.
The berberine hydrochloride of the formula (III) (the final concentration = 20 µM: Matsuura Yakugyo) was added to each medium of the above human cancer cell lines 2 days after the inoculation. After the berberine hydrochloride treatment for 24 hours, a heat shock was applied at 45 °C for 15 minutes, and the cells were then cultured at 37 °C overnight. The control tests were carried out by performing the above procedures except that the berberine hydrochloride was not added.
The cells treated in the above (2) were homogenized, and the amounts of HSP47 produced were measured by the Western blotting method.
The cells treated in the above (2) were washed with PBS(-), and 1 ml of lysis buffer [1.0% NP-40, 0.15 M sodium chloride, 50 mM Tris-HCl (pH 8.0), 5 mM-EDTA, 2 mM-N-ethylmaleimide, 2 mM phenylmethylsulfonyl fluoride, 2 µg/ml leupeptin, and 2 µg/ml pepstatin] was added. The whole was allowed to stand for 20 minutes on ice, and then centrifuged at 4 °C and 12000 rpm for 20 minutes. The resulting supernatant (10 µl) was added to 790 µl of PBS(-), and then 200 µl of a protein assay dye reagent solution (Dye Reagent Concentrate: Bio-Rad Laboratories, Catalogue No. 500-0006) was added. The whole was allowed to stand at room temperature for 5 minutes, and the absorbance at 595 nm was measured to determine the amounts of proteins.
For the SDS-polyacrylamide gel electrophoresis (SDS-PAGE) of the samples, the protein concentration of which were measured, aliquots containing the same amount of protein were loaded onto the gel. The SDS-PAGE was performed according to the Laemmli method. After the electrophoresis, the blotting and then blocking were carried out in accordance with the methods described in Example 1. More particularly, the gel was brought into contact with a 0.45 µm nitrocellulose membrane (Schleicher & Schuell, Catalogue No. 401196) at room temperature and 100 V, using a protein-transferring apparatus (Trans-Blot Electrophoretic Transfer Cell: Bio-Rad), and blotting was carried out for 3 hours. The blotting buffer used was same as that used in Example 1 (3). After blotting, the nitrocellulose membrane was incubated in a 10% skimmed milk-PBS(-) solution at room temperature for 30 minutes, to block non-specific bindings.
After blocking, the first antibody reaction was carried out on the nitrocellulose membrane, using a screener blotter (Sanplatec), and the anti-human-HSP47 rat polyclonal antibody prepared in Example 1. Thereafter, the nitrocellulose membrane was washed with two fresh PBS(-) solutions for 5 minutes, using a slow rocking shaker, and then with four fresh PBS(-)-0.1% Tween 20 (Bio-Rad, Catalogue No. 170-6531) solutions for 15 minutes, and finally, with two fresh PBS(-) solutions for 5 minutes.
After washing, the second antibody reaction was carried out for 2 hours, using 5 ml of a solution prepared by diluting a peroxidase-labeled goat anti-rat IgG antibody (Southern Biotechnology, Catalogue No. 3030-05) 5000-fold with a PBS(-) solution containing 2% skimmed milk. After the reaction, the nitrocellulose membrane was washed with two fresh PBS(-) solutions for 5 minutes, and with five fresh PBS(-)-0.1% Tween 20 solutions for 15 minutes, using a slow rocking shaker, and finally, with two fresh PBS(-) solutions for 5 minutes. […]

[1] = agent containing berberine as an active ingredient; cited from earlier work
mice = details: P. acnes intraperitoneally, lipopolysaccharide intraperitoneally 7 days later; cited from earlier work

SMILES	band of the molecular weight of approximately 47 kDa (HSP47; breast cancer cell line MCF7)	band of the molecular weight of approximately 47 kDa (HSP47; colon cancer cell line COLO 205)	band of the molecular weight of approximately 47 kDa (HSP47; kidney cancer cell line ACHN, in comparison with the control tests)	band of the molecular weight of approximately 47 kDa (HSP47; lung cancer cell line H69)	band of the molecular weight of approximately 47 kDa (HSP47; prostate cancer cell line DU145)	band of the molecular weight of approximately 47 kDa (HSP47; stomach cancer cell line KATO III)	anti-GEM (glomerular basement membrane) nephritis [1]	survival rate of mice (mice)
COc1ccc2cc3[n+](cc2c1OC)CCc1cc2c(cc1-3)OCO2 [berberine hydrochloride]	no band of the molecular weight of approximately 47 kDa was detected	no band of the molecular weight of approximately 47 kDa was detected	faint	no band of the molecular weight of approximately 47 kDa was detected	no band of the molecular weight of approximately 47 kDa was detected	no band of the molecular weight of approximately 47 kDa was detected		
COc1ccc2cc3[n+](cc2c1OC)CCc1cc2c(cc1-3)OCO2 [berberine]							effectively improved	effectively improved
